Patent US12459938B2, “ORAI channel inhibitors” (Beth Israel Deaconess Medical Center, Inc., priority 2019, dated 2025)

How the values were obtained:
Assay type in all cases: cell-based
RBL rat mast cells = assay: Degranulation of rat mast cells (secreted β-hexosaminidase); details: Mast cell, 0.5 h, Tg depletion, 30 minutes after replenishing Ca2+
Experimental: (§1) [Ca^2+]ER in RBL (ATCC) rat mast cells were depleted by Tg in the presence of a test compound. Then […] DMEM-2% FBS (containing 5 mM Ca^2+) was supplemented back in the presence of the corresponding concentration of MCS-01.
(§2) Thirty minutes after replenishing Ca^2+ the culture supernatant was collected for MC degranulation and cytokine release. Degranulation was measured as percent secreted β-hexosaminidase (β-Hex) according to the protocol of the assay kit (Sigma-Aldrich, MO, USA). At this time point TNF-α was also measured using ELISA kit (R&D Systems, MN, USA).

IL-2 = assay: Interleukine-2 (IL-2) assay (ELISA, PMA and TG stimulated); details: Human Jurkat T cells; PMA (10 nM) and TG (100 nM); 8 hours; read-out: IC50 (IL-2 levels)
Experimental: Human Jurkat T cells (ATCC) were plated in Dubelcco's Modified Eagle Medium (DMEM) with 1% FBS in a 96 well plate at a density of 1×10^6 cells/well. Cells were treated with a testing compound at different concentrations and stimulated by PMA (10 nM) and TG (100 nM). The treated cells were incubated at 8 hours. The supernatants were collected and assayed for IL-2 levels by ELISA according to the manufacturer's protocols. The IC50 of Example 2 was determined to be 3 μM.

[1] = system: Rat mast cells (RBL-2H3 cells); assay: Calcium influx assay (Fluo-4NW, thapsigargin store depletion, Ca2+ re-addition); details: control = DMSO, read-out: Fluo-4NW fluorescence (Ca2+ influx), % of control; for activity at 1 µM: 1 μM compound; for activity at 10 µM: 10 μM compound
Experimental: Rat mast cells (RBL-2H3 cells) (ATCC) were seeded in 96-well plate at 4×10^4 cells per well in DMEM-supplemented with 2% FBS and allowed to adhere overnight. Culture medium was then replaced with 50 μl of Ca^2+-free Tyrode buffer to load Ca^2+-probe Fluo-4NW (Molecular Probe, Thermo Fisher, MA, USA) per manufacturer instruction. A testing compound at indicated concentrations was supplied during the probe loading from the beginning. Cells were incubated in the presence or absence of a testing compound for 60 minutes in the Ca^2+-free medium at 37° C. During the last 5 minutes of incubation, cells were treated with 1 μM thapsigargin (Tg, Sigma Aldrich) to deplete [Ca^2+]ER, 20 mM CaCl2 in normal saline solution was supplemented back to the [Ca^2+]ER-depleted cells to have 2 mM as final concentration. Culture medium was removed 1 minute after Ca^2+ reloading, and changes in Fluo-4NW fluorescence (RFU) were recorded with the multi-mode plate reader (FilterMax F5, Molecular Devices/Thermo Fisher Scientific, MA, USA) at an excitation wavelength of 485 nm and an emission wavelength of 535 nm. The inhibitory activity of the tested compound was presented as % of control (DMSO).

TNF-α = TNF-α release from rat mast cells (ELISA); details: Mast cell, RBL rat mast cells, control = DMSO; for activity at 1 µM: 1 μM compound; for activity at 10 µM: 10 μM compound
Experimental: as §1, §2
The inhibitory activity of the tested compound in the TNF-α assay was presented as % of control (DMSO).

NFAT = NFAT activation assay (luciferase reporter, PMA and ionomycin); details: Homo sapiens; 10 μM compound; Jurkat cells; 15 nM PMA and 0.5 μM ionomycin; 18 hours; read-out: Activity 10 μM (% inhibition of NFAT luciferase luminescence)
Experimental: Jurkat cells (BPS Bioscience catalog No. 60621) were seeded at 40,000 cells per well into white clear-bottom 96-well microplate in 80 μl of growth medium without Geneticin. 10 μl of testing compounds (final 10 μM) were added to each well and preincubated with cells for half an hour. Then 10 μl of PMA and ionomycin mixture were added to each well to make the final concentration of 15 nM PMA and 0.5 μM ionomycin. Cells were incubated at 37° C. and 5% CO2 incubator for 18 hours. After treatment, cells were lysed and the luciferase assay was performed using ONE-Step luciferase assay system by adding 100 μl of One-Step Luciferase reagent (BPS Bioscience catalog No. 60690) per well followed by rocking at room temperature for about 30 minutes. Luminescence was measured using a luminometer (BioTek Synergym™ 2 microplate reader). The percent luminescence in the presence of each compound was calculated according to the following equation: % Luminescence=(L−Lb)/(Lt−Lb), where L=the luminescence intensity in the presence of the compound, Lb=the luminescence intensity in the absence of cells, and Lt=the luminescence intensity in the absence of the compound. The percent inhibition was calculated by: % inhibition=100−(% Luminescence).

`O=C(Nc1c(F)cccc1Cl)c1cn(CC2CC2)c2ccccc12` [Example 2, N-(2-chloro-6-fluorophenyl)-1-(cyclopropylmethyl)-1H-indole-3-carboxamide] gave an IC50 (RBL rat mast cells) of 1200 nM, an IC50 (IL-2) of 3000 nM and an activity at 1 µM [1] of 46%. It also gave an activity at 10 µM [1] of 14%, an activity at 1 µM (TNF-α) of 57% and an activity at 10 µM (TNF-α) of 30%.
`O=C(Nc1c(F)cncc1F)c1cn(CC2CCC2)c2ccccc12` [Example 7, 1-(cyclobutylmethyl)-N-(3,5-difluoropyridin-4-yl)-1H-indole-3-carboxamide] was tested, and the activity at 1 µM [1] was 85%, the activity at 10 µM [1] was 80% and the inhibition at 10 µM (NFAT) was 51 to 75%.
Work on `O=C(Nc1ccncc1F)c1cn(CC2CCC2)c2ccccc12` [Example 8, 1-(cyclobutylmethyl)-N-(3-fluoropyridin-4-yl)-1H-indole-3-carboxamide] yielded an activity at 1 µM [1] of 50%, an activity at 10 µM [1] of 25% and an inhibition at 10 µM (NFAT) of over 75%. The activity at 1 µM (TNF-α) was 79% and the activity at 10 µM (TNF-α) was 51%.
With `Cc1cnccc1NC(=O)c1cn(CC2CCC2)c2ccccc12` [Example 9, 1-(cyclobutylmethyl)-N-(3-methylpyridin-4-yl)-1H-indole-3-carboxamide] the activity at 1 µM [1] was 81%, the activity at 10 µM [1] was 65% and the inhibition at 10 µM (NFAT) was over 75%.
Work on `O=C(Nc1ccncc1F)c1cn(CC2CC2)c2ccccc12` [Example 13, 1-(cyclopropylmethyl)-N-(3-fluoropyridin-4-yl)-11/-indole-3-carboxamide] yielded an activity at 1 µM [1] of 63%, an activity at 10 µM [1] of 31% and an inhibition at 10 µM (NFAT) of over 75%. For the same molecule, the activity at 1 µM (TNF-α) was 67% and the activity at 10 µM (TNF-α) was 53%.
